Values quoted from earlier work, collected in patent US4100185A, “Cyclohexanone 5,6-benzo analogues of prostaglandin E” (Miles Laboratories, Inc., priority 1977, dated 1978).
“Also recorded” adds a separate entry of the source. Like-named read-outs stand apart in the source and are kept apart here.

Experiments:
[1] = tested on: gastric secretion; details: man
[2] = tested on: gastric secretion; details: dogs
[3] = tested on: growth hormone; details: rats
[4] = tested on: ovarian progesterone secretion; details: sheep
[5] = tested on: tracheal smooth muscle; details: in vitro
[6] = tested on: thyroid; details: mice
[7] = tested on: blood platelets; details: in vitro
[8] = tested on: adrenal glands; details: hypophysectimized rats
[9] = tested on: adrenergic nervie endings; details: guinea pig
[10] = tested on: motor pathways in the central nervous system
[11] = tested on: female reproductive system; details: in vivo
[12] = variety of mammals

Row | SMILES | effect on gastric secretion [1] | effect on gastric secretion [2] | effect on growth hormone [3] | effect on ovarian progesterone secretion [4] | effect on tracheal smooth muscle [5] | effect on thyroid activity [6] | effect on thrombogenesis [7] | effect on steroidogenesis in the adrenal glands [8] | effect on transmitter release from adrenergic nerve endings [9] | effect on transmission in motor pathways [10] | effect on fertility, gestation, labor [11] | luteolytic effect [12]
1 | CCCCC[C@H](O)/C=C/[C@H]1C=CC(=O)[C@@H]1CCCCCCC(=O)O [PGA1] | exhibits similar activity in man | inhibit gastric secretion | increased synthesis of that hormone |  |  |  |  |  |  |  |  | 
2 | CCCCC[C@H](O)/C=C/[C@H]1[C@H](O)CC(=O)[C@@H]1CCCCCCC(=O)O [PGE1, prostaglandin E1] |  | inhibit gastric secretion | increase release of growth hormone | inhibit ovarian progesterone secretion | relax | increase thyroid activity | inhibits thrombogenesis in vitro | stimulate steriodogenesis in the adrenal glands | inhibit transmitter release from adrenergic nervie endings | retards |  | 
3 | CCCCC[C@H](O)/C=C/[C@H]1[C@H](O)CC(=O)[C@@H]1C/C=C\CCCC(=O)O [PGE2] |  | inhibit gastric secretion | increase release of growth hormone |  | relax | increase thyroid activity |  | stimulate steriodogenesis in the adrenal glands | inhibit transmitter release from adrenergic nervie endings |  | exerts potent oxytocic effects in inducing labor | 
4 | CCCCC[C@H](O)/C=C/[C@@H]1[C@@H](CCCCCCC(=O)O)[C@@H](O)C[C@H]1O [PGF1α] |  |  |  | inhibit ovarian progesterone secretion |  | increase thyroid activity |  | stimulate steriodogenesis in the adrenal glands |  |  |  | act as luteolytic factors
5 | CCCCC[C@H](O)/C=C/[C@@H]1[C@@H](CCCCCCC(=O)O)[C@H](O)C[C@H]1O [PGF1β] |  |  |  |  |  | increase thyroid activity |  |  |  |  |  | 
6 | CCCCC[C@H](O)/C=C/[C@@H]1[C@@H](C/C=C\CCCC(=O)O)[C@@H](O)C[C@H]1O [PGF2α] |  |  |  |  | contracts the smooth muscle |  |  |  |  | facilitates transmission in motor pathways in the central nervous system | has contragestational effects; also recorded: induces spontaneous abortions in early pregnancy | 
